# Read-outs that look alike come from different tables or passages of the source.
# Tests used:
# A. baumannii (ATCC17978) = test: 50% growth inhibitory concentration (IC50) determination assay; assay type: cell-based; conditions: Acinetobacter baumannii, ATCC17978, A. baumannii ATCC17978; Iso-Sensitest broth; 0.098 = detection limit
# How it was run: (§1)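 Each strain, inoculated at ~5×10^5 CFU/mL in Iso-Sensitest broth, faces a two-fold compound series spanning 50 to 0.097 μM final concentration. Incubation proceeds at 35±2° C, and cell growth is tracked by absorbance at λ=600 nm every 20 minutes over 16 h.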
# [1] = system: K. pneumoniae (ATCC10031); test: as above; assay type: cell-based; conditions: Klebsiella pneumoniae, Iso-Sensitest broth, 0.098 = detection limit
# How it was run: as §1
# S. aureus (ATCC29213) = test: as above; assay type: cell-based; conditions: Staphylococcus aureus, Iso-Sensitest broth, 0.098 = detection limit
# How it was run: as §1
# [2] = Lyophilisation solubility assay (LYSA); assay type: physicochemical; conditions: phosphate buffer, pH 6.5, aqueous buffer, thermodynamic from solid, 0.05 M phosphate buffer, HPLC-UV
# How it was run: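 Read-out is HPLC-UV of the filtered solution and its 1/10 dilution. The dried residue of a 10 mM DMSO stock was redissolved in 0.05 M pH 6.5 phosphate buffer, then stirred 1 h, shaken 2 h and held overnight. Run in duplicate.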
# [3] = system: multiple species and strains; test: Minimal inhibitory concentration (MIC) and MIC90 determination, broth microdilution (CLSI M07-A10); conditions: S9: P. aeruginosa ATCC BAA-2113
# Protocol: Minimal Inhibitory Concentration (MIC) and MIC90 Determination:
# The MIC of antibacterial compounds against multiple species and strains was determined using the broth microdilution method according to M07-A10 Clinical and Laboratory Standards Institute (CLSI) guidelines (CLSI (2015) Methods for dilution antimicrobial susceptibility tests for bacteria that grow aerobically; Approved Standard, Tenth Edition. CLSI Document M7-A10 (ISBN 1-56238-987-4). Wayne, Pa.: Clinical and Laboratory Standards Institute, 19087, USA.). In short, bacterial strain preparation was performed on D1 and D2. […] 5-10 well-isolated colonies of similar morphology were selected and re-streaked onto fresh agar plates using sterile loops and incubated for 20-24 hr at 35±2° C. Bacterial strains were subcultured two times to ensure fresh inoculums for MIC screening. […] Alternatively, 1-2 colonies were transferred into 500 μL of saline and OD600 was adjusted to ˜0.1 using an OD meter. Bacterial inoculum was diluted by 1:280 for Gram-positive strains and 1:400 for Gram-negative strains into corresponding medium broth (CAMHB, CAMHB+3% lysed horse blood, HTM) (e.g. 35.6 μL of inoculum into 10 mL of CAMHB or 25 μL of inoculum into 10 mL of CAMHB). […] Compound stock concentration=[(highest testing concentration)×100 μL/2 μL] (e.g. if the required highest testing concentration is 64 μg/mL in assay plates, stock concentration=64 μg/mL×100 μL/2 μL=3.2 mg/mL). […] of each well was transferred in a new MTP, which served as the test plate by subsequent inoculation. The bacterial suspension prepared above is dispensed at 98 μL/well within 15 minutes after preparation. Negative controls (lack of bacterial cells) and growth control wells (lack of compound) were included in all plates. MTPs were incubated for 18-24 hours at 35±2° C. in ambient air. The MIC was recorded and CFUs were calculated on Day 4. The assay plate was placed on the top of MIC reader, and the magnification mirror was adjusted to read each wells, recording growth status as raw data. Photo images of each assay plates were recorded using Q Count 530 (Spiral Biotech). The MIC value of each compound, expressed as […], was determined as the lowest concentration required for complete growth inhibition (no visible growth).
# [4] = Cytotoxicity assay (HepG2, CellTiter-Blue cell viability); assay type: cell-based; conditions: human; HepG2 cells, 3 days treatment; "*": the detection limit; read-out: CC50
# How it was run: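 HepG2 cells (1.2×10^4 per well) exposed to compounds for 3 days; viability then read by CellTiter-Blue fluorescence after 3 h at 37 °C. CC50 from four-parameter logistic fit.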
# [5] = Single dose PK study (SDPK) in female CD-1 mouse; assay type: in vivo; conditions: MOUSE IV; for clearance: female, CD-1, plasma, read-out: CL total
# Protocol: Single Dose PK Study (SDPK) in Female CD-1 Mouse: The single dose PK in female CD-1 mouse was performed to assess compound's pharmacokinetic properties. One group of animals were dosed via bolus intravenous (IV) of the respective compound. Blood samples (approximately 30 μL) were collected via saphenous vein at 5 mins, 15 min, 30 min, 1 hr, 2 hr, 4 hr and 7 hr. For last time point (24 hr), samples were collected via cardiac puncture while the mouse was under anesthesia. Blood samples were placed into tubes containing EDTA-K2 anticoagulant (2 μL of 0.5M per tube) and centrifuged at 3000 rpm for 10 minutes at 4° C. within half an hour to separate plasma from the samples. Following centrifugation, plasma samples were stored in polypropylene tubes, quick frozen over dry ice and kept at −70±10° C. until LC/MS/MS analysis. The pharmacokinetic parameters were calculated using non-compartmental module of WinNonlin® Professional 6.4.
Structure (SMILES),IC50 (A. baumannii (ATCC17978)) [µM],IC50 [1] [µM],IC50 (S. aureus (ATCC29213)) [µM],solubility thermodynamic [2] [µg/mL],MIC S9 [3],CC50 at 3 days [4] [nM],AUC total ([5]; 1.0 mg/kg-Solution) [ng·h/mL],clearance ([5]; 1.0 mg/kg-Solution) [mL/min/kg],AUC total ([5]; 0.7 mg/kg-Solution) [ng·h/mL],clearance ([5]; 0.7 mg/kg-Solution) [mL/min/kg]
CNc1cc(F)c(F)c2c1[nH]c1ncc(-c3cnc4c(c3)c(=O)c(C(=O)O)cn4C)c(N3CCC[C@H]3CN(C)C)c12 [Example 1.14],0.154,< 0.098,< 0.098,407,7.02,29100,–,–,–,–
CNc1cc(F)c(F)c2c1[nH]c1ncc(-c3cnc4c(c3)c(=O)c(C(=O)O)cn4C)c(N3CCC(O)CC3)c12 [Example 1.43],0.663,< 0.098,< 0.098,–,–,39300,235.1,66.3,–,–
CNc1cc(F)cc2c1[nH]c1ncc(-c3cnc4c(c3)c(=O)c(C(=O)O)cn4CC(C)O)c(N3CCOCC3)c12 (centres unmarked) [Example 1.53],0.764,< 0.098,< 0.098,–,–,> 100000,211.3,83.5,–,–
CNc1c(F)c(F)cc2c1[nH]c1ncc(-c3cnc4c(c3)c(=O)c(C(=O)O)cn4C3CCNC3)c(N(C)C)c12 (centres unmarked) [Example 1.55],0.334,–,0.101,–,–,49800,165.9,98.7,–,–
CNc1cc(F)c(F)c2c1[nH]c1ncc(-c3cnc4c(c3)c(=O)c(C(=O)O)cn4CC(N)C(C)C)c(N3CCOCC3)c12 (centres unmarked) [Example 1.57],0.198,–,< 0.098,–,–,35900,–,–,190.8,84.6
CNc1cc(F)c(F)c2c1[nH]c1ncc(-c3cnc4c(c3)c(=O)c(C(=O)O)cn4C)c(N3CC[C@H]4CN(C)CC43)c12 (some centres unmarked) [Example 1.85],0.089,< 0.098,< 0.098,101,6.995,35200,177.0,94.8,–,–
CNc1cc(F)cc2c1[nH]c1ncc(-c3cnc4c(c3)c(=O)c(C(=O)O)cn4NC)c(N3CC[C@H]4CN(C)CC43)c12 (some centres unmarked) [Example 1.86],0.175,< 0.098,0.15,> 805,–,43400,194.1,86.5,–,–
CNc1cc(F)c(F)c2c1[nH]c1ncc(-c3cnc4c(c3)c(=O)c(C(=O)O)cn4NC)c(N3CC[C@H]4CN(C)CC43)c12 (some centres unmarked) [Example 1.189],0.095,< 0.098,< 0.098,255,4.304,41200,–,–,–,–
CNc1cc(F)c(F)c2c1[nH]c1ncc(-c3cnc4c(c3)c(=O)c(C(=O)O)cn4C)c(N3CC[C@H]4CCN(C)C4C3)c12 (some centres unmarked) [Example 1.196],0.102,< 0.098,< 0.098,25,–,–,177.4,98.4,–,–
CNc1cc(F)c(F)c2c1[nH]c1ncc(-c3cnc4c(c3)c(=O)c(C(=O)O)cn4C)c(N3CC(N(C)C)C4(CC4)C3)c12 (centres unmarked) [Example 1.207],0.203,< 0.098,0.101,73,–,–,188.3,85.7,–,–
CNc1cc(F)c(C#N)c2c1[nH]c1ncc(-c3cnc4c(c3)c(=O)c(C(=O)O)cn4C)c(N3CC[C@H]4CN(C)CC43)c12 (some centres unmarked) [Example 1.274],0.117,–,–,118,8.508,–,–,–,–,–
CNc1cc(F)c(C#N)c2c1[nH]c1ncc(-c3cnc4c(c3)c(=O)c(C(=O)O)cn4NC)c(N3CC[C@H]4CN(C)CC43)c12 (some centres unmarked) [Example 1.275],0.281,–,–,–,4.348,–,–,–,–,–
CNc1cc(F)c(F)c2c1[nH]c1ncc(-c3cnc4c(c3)c(=O)c(C(=O)O)cn4C)c(N3CC4C(N(C)C)CO[C@@H]4C3)c12 (some centres unmarked) [Example 1.286],0.143,–,–,–,3.973,–,–,–,–,–
CNc1cc(F)c(C#N)c2c1[nH]c1ncc(-c3cnc4c(c3)c(=O)c(C(=O)O)cn4C)c(N3CC[C@H]4CN(C)C[C@H]43)c12 [Example 1.298],–,–,–,–,17.016,–,274.0,62.7,–,–
"CNc1cc(F)c(F)c2c1[nH]c1ncc(-c3cnc4c(c3)c(=O)c(C(=O)O)cn4NC)c(N3CC[C@H]4CN(C)C[C@H]43)c12 [Example 3.01A, 6-[5,6-difluoro-8-(methylamino)-4-[(3aS,6aS)-5-methyl-2,3,3a,4,6,6a-hexahydropyrrolo[2,3-c]pyrrol-1-yl]-9H-pyrido[2,3-b]indol-3-yl]-1-(methylamino)-4-oxo-1,8-naphthyridine-3-carboxylic acid]",0.034,< 0.098,< 0.098,264,1.796,54100,195.4,81.9,–,–
"CNc1cc(F)c(F)c2c1[nH]c1ncc(-c3cnc4c(c3)c(=O)c(C(=O)O)cn4NC)c(N3CC[C@@H]4CN(C)C[C@@H]43)c12 [Example 3.01B, 6-[5,6-difluoro-8-(methylamino)-4-[(3aR,6aR)-5-methyl-2,3,3a,4,6,6a-hexahydropyrrolo[2,3-c]pyrrol-1-yl]-9H-pyrido[2,3-b]indol-3-yl]-1-(methylamino)-4-oxo-1,8-naphthyridine-3-carboxylic acid]",0.56,< 0.098,0.168,265,–,39400,156.1,105,–,–
CNc1cc(F)c(F)c2c1[nH]c1ncc(-c3cnc4c(c3)c(=O)c(C(=O)O)cn4C)c(N3CC[C@H]4CN(C)C[C@H]43)c12 [Example 3.03A],0.039,< 0.098,< 0.098,137,1.749,38400,249.6,66.9,–,–
CNc1cc(F)c(F)c2c1[nH]c1ncc(-c3cnc4c(c3)c(=O)c(C(=O)O)cn4NC)c(N3C[C@H]4CCN(C)[C@H]4C3)c12 [Example 3.07A],0.076,< 0.098,< 0.098,20,–,> 100000,214.0,77.4,–,–
CNc1cc(F)c(F)c2c1[nH]c1ncc(-c3cnc4c(c3)c(=O)c(C(=O)O)cn4C)c(N3C[C@H]4CCN(C)[C@H]4C3)c12 [Example 3.08A],0.049,< 0.098,< 0.098,119,–,–,190.5,86.7,–,–

# — US10662203B2, “Pyrido[2,3-b]indole compounds for the treatment and prophylaxis of bacterial infection” (Hoffmann-La Roche Inc., priority 2017, dated 2020)
